The text below walks through data of PMC6792352, “Limited Chemical Structural Diversity Found to Modulate Thyroid Hormone Receptor in the Tox21 Chemical Library” (Environmental Health Perspectives, 2019).

For orientation: CC50 means the concentration giving 50% cytotoxicity. Read a low CC50 as greater toxicity to the cells.

Structures can show the parent of a compound that is named as a salt. Where only a bound is given, the exact number is not on record here.

The data set is described as follows: in vitro. The note with it: rat, gh3-tre-luc cells.

In turn, `O=C(O)c1ccc([N+](=O)[O-])cc1` [4-Nitrobenzoic acid] had a 50% cytotoxic concentration (CC50) at 24 h (AC50 (uM) modified / 1000) of over 90 µM.

Take `CCCCc1cc2ccccc2c(OCCN(C)C)n1` [Dimethisoquin hydrochloride]: under “AC50 (uM) modified / 1000”, the midpoint of cytotoxicity, the CC50 at 24 h, lay at 7.4 µM.

Regarding `O=c1[nH]ncc2ccccc12` [1(2H)-Phthalazinone], the CC50 at 24 h (AC50 (uM) modified / 1000) was over 90 µM.

Under “AC50 (uM) modified / 1000”, `CC(C)(CO)CO` [2,2-Dimethylpropane-1,3-diol] came in with a CC50 at 24 h of over 90 µM.

`N#CCCC(Br)(C#N)CBr` (centres unmarked) [1,2-Dibromo-2,4-dicyanobutane] displayed a cytotoxic concentration (CC50) at 24 h (AC50 (uM) modified / 1000) of 16.2 µM.

For `N=C(N)c1ccc(/C=C/c2ccc(C(=N)N)cc2O)cc1` [Hydroxystilbamidine bis(methanesulfonate)], the CC50 at 24 h (AC50 (uM) modified / 1000) is over 50 µM.

Where the note is “AC50 (uM) modified / 1000”, `CCCCN` [Butylamine] returned a CC50 at 24 h of over 50 µM.

In turn, `CC1(C)CCC[C@]2(C)[C@H]3CCO[C@]3(C)CC[C@@H]12` [(-)-Ambroxide] showed a 50% cytotoxic concentration (CC50) at 24 h (AC50 (uM) modified / 1000) of over 90 µM.

With `CN(C)C(=O)CCSC(SCCC(=O)O)c1cccc(/C=C/c2ccc3ccc(Cl)cc3n2)c1` (centres unmarked) [MK-571 sodium], it took 28.9 µM to reach half-maximal cytotoxicity (AC50 (uM) modified / 1000) (CC50 at 24 h).

Regarding `COc1ccccc1N1CCN(CCCC(=O)c2ccc(F)cc2)CC1` [Fluanisone], the CC50 at 24 h (AC50 (uM) modified / 1000) was over 50 µM.

For the compound `O=C(O)c1ccccc1C(=O)OCc1ccccc1` [Monobenzyl phthalate], for the setting “AC50 (uM) modified / 1000”, the 50% cytotoxic concentration (CC50) at 24 h was over 90 µM.

For the compound `CCCCCCOC(=O)c1cccnc1` [Hexyl nicotinate], the CC50 at 24 h (AC50 (uM) modified / 1000) was over 50 µM.

With `COC(=O)c1ccc(C(=O)O)cc1` [1,4-Benzenedicarboxylic acid, monomethyl ester], the CC50 at 24 h (AC50 (uM) modified / 1000) is over 90 µM.

`Nc1ccn([C@@H]2CS[C@H](CO)O2)c(=O)n1` [Lamivudine]: where the note is “AC50 (uM) modified / 1000”, the half-maximal cytotoxic concentration (CC50) at 24 h is over 90 µM.

In turn, `CC(=O)OCC(COC(C)=O)OC(C)=O` [Triacetin] returned a CC50 at 24 h (AC50 (uM) modified / 1000) of over 90 µM.

As for `O=C(O)c1ccc(OCCn2ccnc2)cc1` [Dazoxiben], the half-maximal cytotoxic concentration (CC50) at 24 h (AC50 (uM) modified / 1000) was over 50 µM.

For `CN(C)CC[C@@H](c1ccc(Br)cc1)c1ccccn1` [Dexbrompheniramine maleate], the 50% cytotoxic concentration (CC50) at 24 h (AC50 (uM) modified / 1000) stood at 26.6 µM.

Consider `O=C(NS(=O)(=O)/C=C/c1cccs1)c1ccc(F)cc1Br` [PharmaGSID_48518], for which the CC50 at 24 h (AC50 (uM) modified / 1000) was over 90 µM.

Where the note is “AC50 (uM) modified / 1000”, `ClCC=CCCl` [1,4-Dichloro-2-butene] had a CC50 at 24 h of over 90 µM.

Compound `CCCc1nn(C)c2c(=O)[nH]c(-c3cc(S(=O)(=O)N4CCN(C)CC4)ccc3OCC)nc12` [Sildenafil citrate] returned a CC50 at 24 h (AC50 (uM) modified / 1000) of over 50 µM.

With `CCCSc1cc(OC)c(CCN)cc1OC` [2-[2,5-dimethoxy-4-(propylsulfanyl)phenyl]ethanamine hydrochloride], the CC50 at 24 h (AC50 (uM) modified / 1000, Tox21_110001=Tox21_112821, viability, 1 nM T3 present, 24 h) amounted to 34.6 µM.

With `O=C1Nc2ccccc2C1(c1ccc(O)cc1)c1ccc(O)cc1` [Oxyphenisatin], it took 61.2 µM to reach half-maximal cytotoxicity (AC50 (uM) modified / 1000) (CC50 at 24 h).

The compound `COc1c2occc2c(OC)c2c(=O)cc(C)oc12` [Khellin] registered a CC50 at 24 h (AC50 (uM) modified / 1000) of over 20 µM.

Under “AC50 (uM) modified / 1000”, `CC(=O)OCCCc1ccccc1` [3-Phenylpropyl acetate] had a CC50 at 24 h of over 90 µM.

In the case of `CCn1nc(C(=O)O)c(=O)c2cc3c(cc21)OCO3` [Cinoxacin], the CC50 at 24 h (AC50 (uM) modified / 1000) is over 20 µM.

As to `C=C(C)C(=O)OCCCC` [Butyl methacrylate], under “AC50 (uM) modified / 1000”, the CC50 at 24 h was over 90 µM.

Under “AC50 (uM) modified / 1000”, `Oc1ccc2c3c1O[C@H]1[C@@H](O)CC[C@@]4(O)[C@@H](C2)N(CC2CCC2)CC[C@]314` [Nalbuphine] returned a 50% cytotoxic concentration (CC50) at 24 h of over 50 µM.

Take `COC(=O)C1=C(C)NC(COC(N)=O)=C(C(=O)OC(C)C)C1c1cccc(Cl)c1Cl` (centres unmarked) [Lemildipine]: half-maximal cytotoxicity (AC50 (uM) modified / 1000) (CC50 at 24 h) was put at 25.8 µM.

`CCCCCCCCCCCCCCCC(=O)OC[C@@H](NC(=O)C(Cl)Cl)[C@H](O)c1ccc([N+](=O)[O-])cc1` [Chloramphenicol palmitate] registered a CC50 at 24 h (AC50 (uM) modified / 1000) of over 50 µM.

As for `Clc1ccc(Cl)cc1` [1,4-Dichlorobenzene], the CC50 at 24 h is over 50 µM (AC50 (uM) modified / 1000, Tox21_110001=Tox21_111293, viability, 1 nM T3 present, 24 h) and over 90 µM (AC50 (uM) modified / 1000, Tox21_110001=Tox21_200399, viability, 1 nM T3 present, 24 h).

In the case of `NC(=O)CN1CC(O)CC1=O` (centres unmarked) [Oxiracetam], the CC50 at 24 h (AC50 (uM) modified / 1000) is over 50 µM.

In turn, `O=C(N[C@H](c1ccccc1)[C@@H]1CN2CCC1CC2)c1c(Cl)ccc(C(F)(F)F)c1Cl` [SSR 103800] returned a CC50 at 24 h (AC50 (uM) modified / 1000) of 9.74 µM.

Take `O=C(O)Cc1ccccc1` [Phenylacetic acid]: the cytotoxic concentration (CC50) at 24 h (AC50 (uM) modified / 1000, Tox21_110001=Tox21_113042, viability, 1 nM T3 present, 24 h) was over 50 µM and the CC50 at 24 h (AC50 (uM) modified / 1000, Tox21_110001=Tox21_200533, viability, 1 nM T3 present, 24 h) is over 90 µM.

Take `C=CCN1CC[C@]23c4c5ccc(O)c4O[C@H]2[C@@H](O)C=C[C@H]3[C@H]1C5` [Nalorphine hydrochloride]: the CC50 at 24 h (AC50 (uM) modified / 1000, Tox21_110001=Tox21_112614, viability, 1 nM T3 present, 24 h) is over 50 µM.

For the setting “AC50 (uM) modified / 1000”, `CN(C)[C@@H]1C(=O)C(C(=O)NCN2CCCC2)=C(O)[C@@]2(O)C(=O)C3=C(O)c4c(O)cccc4[C@@](C)(O)C3C[C@@H]12` (some centres unmarked) [Rolitetracycline hydrochloride] gave a CC50 at 24 h of over 50 µM.

`C=C(C)C1CCC(C)(O)CC1` (stereo not drawn) [beta-Terpineol] came in with a CC50 at 24 h (AC50 (uM) modified / 1000) of over 90 µM.

Under “AC50 (uM) modified / 1000”, `CCCCCCCC(=O)OCCCCCC` [Hexyl octanoate] showed a half-maximal cytotoxic concentration (CC50) at 24 h of over 90 µM.

With `O=C(c1ccccc1)c1ccccc1` [Benzophenone], the CC50 at 24 h (AC50 (uM) modified / 1000) is over 50 µM.

Regarding `C=CC(C)(CCC=C(C)C)OC(=O)/C=C/c1ccccc1` (centres unmarked) [Linalyl cinnamate], the CC50 at 24 h (AC50 (uM) modified / 1000) is over 90 µM.

The compound `c1ccc2nccnc2c1` [Quinoxaline] showed a CC50 at 24 h (AC50 (uM) modified / 1000) of over 90 µM.

As for `O=c1ccc2cc(O[C@@H]3O[C@H](CO)[C@@H](O)[C@H](O)[C@H]3O)c(O)cc2o1` [Esculin], the CC50 at 24 h (AC50 (uM) modified / 1000) is over 20 µM.

On to `N#CCCC#N` [Succinonitrile], for which the CC50 at 24 h (AC50 (uM) modified / 1000, Tox21_110001=Tox21_200635, viability, 1 nM T3 present, 24 h) is over 90 µM.

`O=C(O)C(Br)(Br)Br` [Tribromoacetic acid]: for the setting “AC50 (uM) modified / 1000, Tox21_110001=Tox21_200913, viability, 1 nM T3 present, 24 h”, the CC50 at 24 h was over 90 µM.

With `CC(C)(C)c1ccc(-c2ccc(C(C)(C)C)cc2)cc1` [4,4'-Di-tert-butylbiphenyl], the CC50 at 24 h (AC50 (uM) modified / 1000) was over 90 µM.

With `O=C(O)/C=C/c1ccc(/C=C/C(=O)O)cc1` [3,3'-(1,4-Phenylene)bis-2-propenoic acid], for the setting “AC50 (uM) modified / 1000”, the CC50 at 24 h was over 50 µM.

`C=Cc1ccc(C=C)cc1` [1,4-Divinylbenzene]: the CC50 at 24 h (AC50 (uM) modified / 1000) is over 100 µM.

As for `Oc1ccc(C(O)CNCCCCCCNCC(O)c2ccc(O)c(O)c2)cc1O` (centres unmarked) [Hexoprenaline sulfate], it took 20.9 µM to reach half-maximal cytotoxicity (AC50 (uM) modified / 1000) (CC50 at 24 h).

The compound `CC(=O)C(C)(C)C` [3,3-Dimethyl-2-butanone] registered a CC50 at 24 h (AC50 (uM) modified / 1000, Tox21_110001=Tox21_200060, viability, 1 nM T3 present, 24 h) of over 100 µM.

As for `CCCCCCCCC(=O)O` [Nonanoic acid], the CC50 at 24 h (AC50 (uM) modified / 1000) is over 90 µM.

In turn, `CN(CC(=O)N1CCOCC1)Cc1c(Cl)cccc1NC(=O)c1ccccc1` [Fominoben hydrochloride] returned a CC50 at 24 h (AC50 (uM) modified / 1000) of over 50 µM.

`CC/C=C\CC/C=C/C=O` [trans-2,cis-6-Nonadienal] yielded a CC50 at 24 h (AC50 (uM) modified / 1000) of over 90 µM.

`CCC/C=C/C=C/C(=O)O[C@H]1/C(=C/C(=O)OC)C[C@H]2C[C@H]([C@@H](C)O)OC(=O)C[C@H](O)C[C@@H]3C[C@H](OC(C)=O)C(C)(C)[C@](O)(C[C@@H]4C/C(=C/C(=O)OC)C[C@H](/C=C/C(C)(C)[C@]1(O)O2)O4)O3` [Bryostatin 1]: the midpoint of cytotoxicity (AC50 (uM) modified / 1000, Tox21_110001=Tox21_112754, viability, 1 nM T3 present, 24 h), the CC50 at 24 h, lay at 9.94 µM.

In turn, `CCNc1nc(NC(C)C(C)C)nc(SC)n1` (centres unmarked) [Dimethametryn] returned a CC50 at 24 h (AC50 (uM) modified / 1000) of over 90 µM.

The compound `CC1(C)[C@H]2CC[C@]1(C)[C@H](O)C2` [[(1S)-endo]-(-)-Borneol] displayed a CC50 at 24 h (AC50 (uM) modified / 1000) of over 90 µM.

The compound `Cc1nc(C)c(Cl)c(O)c1Cl` [Clopidol] gave a CC50 at 24 h (AC50 (uM) modified / 1000) of over 50 µM.

In the case of `O=[N+]([O-])c1c(Cl)cccc1-c1c[nH]cc1Cl` [Pyrrolnitrin], the CC50 at 24 h (AC50 (uM) modified / 1000) turned out to be 23.7 µM.

In the case of `COC(=O)c1ccc(OC)cc1` [Methyl 4-methoxybenzoate], the half-maximal cytotoxic concentration (CC50) at 24 h (AC50 (uM) modified / 1000) was over 90 µM.
